Test results as given in patent US10421718B2, “EBNA1 inhibitors and their method of use” (priority 2013, dated 2019).
pIC50: −log10 of the molar value. Structures can show the parent of a compound that is named as a salt.

Biological target: T1, His-EBNA1 (DNA binding domain of EBNA1, amino acids 459-607) (Epstein-Barr virus, UniProt P03211)
T1 construct: made in house; host or cells: E. coli
Test: Inhibition of 5′-biotin-oPL4624 binding to His-EBNA1 using Alpha Screen technology
Conditions: Alpha Screen Activity (IC50, inhibition of 5′-biotin-oPL4624 binding to His-EBNA1), 15 nM His-EBNA1, 0.2 nM bt-oPL4624, 2 hr room temperature
Method in brief: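 His-tagged EBNA1 DNA-binding domain (aa 459-607, E. coli-expressed) at 15 nM with 0.2 nM biotinylated self-complementary oligo, streptavidin donor and nickel acceptor beads, in 25 mM Tris pH 7.2, 160 mM NaCl, 1 mM MgCl2. Compound 3.2 nM-100 μM final; AlphaScreen read after 2 h at room temperature, one-site dose-response fit.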

T1 sequence (P03211 459-607): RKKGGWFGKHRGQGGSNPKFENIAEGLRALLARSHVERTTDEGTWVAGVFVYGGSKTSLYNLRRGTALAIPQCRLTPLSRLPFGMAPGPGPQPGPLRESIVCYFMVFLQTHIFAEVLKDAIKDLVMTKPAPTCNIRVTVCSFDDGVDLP

**Q.** With COc1cc(-c2c(C#Cc3cccc(O)c3)cccc2C(=O)O)ccc1N [Entry 244, 4′-Amino-6-((3-hydroxyphenyl)ethynyl)-5′-methoxybiphenyl-2-carboxylic acid] as the compound, how does the pIC50 read?
**A.** 4.00 to 5.00

**Q.** With O=C(O)c1cccc(C#CCCO)c1-c1ccc2cc[nH]c2c1 [Entry 245, 3-(4-hydroxybut-1-ynyl)-2-(1H-indol-6-yl)benzoic acid] as the compound, how does the pIC50 read?
**A.** > 6.00

**Q.** How did the pIC50 turn out when CC(C)(N)C#Cc1cccc(C(=O)O)c1-c1ccc2cc[nH]c2c1 [Entry 246, 3-(3-amino-3-methylbut-1-ynyl)-2-(1H-indol-6-yl)benzoic acid] was run?
**A.** 5.00 to 6.00

**Q.** How did the pIC50 turn out when O=C(O)c1cccc(C#CC(O)c2ccccc2)c1-c1ccc2cc[nH]c2c1 (stereo not drawn) [Entry 247, 3-(3-hydroxy-3-phenylprop-1-ynyl)-2-(1H-indol-6-yl)benzoic acid] was run?
**A.** > 6.00

**Q.** With CC(C)(O)C#Cc1cccc(C(=O)O)c1-c1ccc2cc[nH]c2c1 [Entry 248, 3-(3-hydroxy-3-methylbut-1-ynyl)-2-(1H-indol-6-yl)benzoic acid] as the compound, how does the pIC50 read?
**A.** > 6.00

**Q.** O=C(O)c1cccc(C#Cc2cccc(CO)c2)c1-c1ccc2cc[nH]c2c1 [Entry 249, 3-((3-(hydroxymethyl)phenyl)ethynyl)-2-(1H-indol-6-yl)benzoic acid] was tested. Which pIC50 did it give?
**A.** 5.00 to 6.00

**Q.** With O=C(O)c1cc2ccc(-c3c(C#Cc4ccccc4)cccc3C(=O)O)cc2[nH]1 [Entry 250, 6-(2-carboxy-6-(phenylethynyl)phenyl)-1H-indole-2-carboxylic acid] as the compound, how does the pIC50 read?
**A.** 5.00 to 6.00

**Q.** With CCOC(=O)c1cc2ccc(-c3c(C#Cc4ccccc4)cccc3C(=O)O)cc2[nH]1 [Entry 251, 2-(2-(ethoxycarbonyl)-1H-indol-6-yl)-3-(phenylethynyl)benzoic acid] as the compound, how does the pIC50 read?
**A.** 5.00 to 6.00

**Q.** With COc1cc(C#Cc2cccc(C(=O)O)c2-c2ccc3cc[nH]c3c2)cc(C(N)=O)c1 [Entry 252, 3-((3-carbamoyl-5-methoxyphenyl)ethynyl)-2-(1H-indol-6-yl)benzoic acid] as the compound, how does the pIC50 read?
**A.** 5.00 to 6.00

**Q.** How did the pIC50 turn out when O=C(O)c1cccc(C#Cc2ccccc2)c1-c1ccc2[nH]ccc2c1 [Entry 253, 2-(1H-indol-5-yl)-3-(phenylethynyl)benzoic acid] was run?
**A.** 5.00 to 6.00

**Q.** O=C(O)c1cc2cc(-c3c(C#Cc4cccc(O)c4)cccc3C(=O)O)ccc2[nH]1 [Entry 254, 5-(2-carboxy-6-((3-hydroxyphenyl)ethynyl)phenyl)-1H-indole-2-carboxylic acid] was tested. Which pIC50 did it give?
**A.** 4.00 to 5.00

**Q.** With COc1ccc(C#Cc2cccc(C(=O)O)c2-c2ccc3[nH]c(C(=O)O)cc3c2)cc1 [Entry 255, 5-(2-carboxy-6-((4-methoxyphenyl)ethynyl)phenyl)-1H-indole-2-carboxylic acid] as the compound, how does the pIC50 read?
**A.** 4.00 to 5.00

**Q.** O=C(O)c1cccc(C#Cc2ccc(F)c(OC3CCOCC3)c2)c1-c1ccc2cc[nH]c2c1 [Entry 256, 3-((4-fluoro-3-(tetrahydro-2H-pyran-4-yloxy)phenyl)ethynyl)-2-(1H-indol-6-yl)benzoic acid] was tested. Which pIC50 did it give?
**A.** 5.00 to 6.00

**Q.** CC(=O)Nc1cccc(-c2c(C#Cc3ccccc3)cccc2C(=O)O)c1 [Entry 257, 5′-acetamido-6-(phenylethynyl)biphenyl-2-carboxylic acid] was tested. Which pIC50 did it give?
**A.** 4.00 to 5.00

**Q.** With Nc1ccc2c(c1)ncn2CC#Cc1cccc(C(=O)O)c1-c1ccccc1 [Entry 258, 3-[3-(5-amino-1H-1,3-benzodiazol-1-yl)prop-1-yn-1-yl]-2-phenylbenzoic acid trifluoroacetate salt] as the compound, how does the pIC50 read?
**A.** 5.00 to 6.00

**Q.** With O=C(O)c1cccc(C#Cc2ccncc2)c1-c1ccc2cc[nH]c2c1 [Entry 259, 2-(1H-indol-6-yl)-3-[2-(pyridin-4-yl)ethynyl]benzoic acid; trifluoroacetate salt] as the compound, how does the pIC50 read?
**A.** 5.00 to 6.00

**Q.** With Cc1ccc(-c2c(C#Cc3ccncc3)cccc2C(=O)O)cc1 [Entry 260, 2-(4-methylphenyl)-3-[2-(pyridin-4-yl)ethynyl]benzoic acid; trifluoroacetate salt] as the compound, how does the pIC50 read?
**A.** 4.00 to 5.00

**Q.** With Cc1ccc(-c2c(C#Cc3cccc(O)c3)cccc2C(=O)O)cc1 [Entry 261, 3-[2-(3-hydroxyphenyl)ethynyl]-2-(4-methylphenyl)benzoic acid] as the compound, how does the pIC50 read?
**A.** 4.00 to 5.00
